pIC50: −log10 of the molar value. The source made the active and inactive calls. The calls are words filed in the database; no cut-off is given here.
Legend:
[1] = Cytotoxicity against human HepG2 cells assessed as reduction in cell viability incubated for 72 hrs by MTT assay; type: toxicity, cell-based
ECa-109 cell line = assay: Cytotoxicity against human Eca-109 cells assessed as reduction in cell viability incubated for 72 hrs by MTT assay; type: functional, cell-based; conditions: ECa-109, 72 h
[2] = Toxicity in ICR mouse assessed as change in neutrophile granulocytes level at 100 mg/kg, ip qd (reference value: 0.9 10^9/L); type: organism-based; conditions: in vivo
[3] = Toxicity in ICR mouse assessed as change in mean corpuscular volume at 100 mg/kg, ip qd (reference value: 51.3 fL); type: organism-based; conditions: in vivo
[4] = Toxicity in ICR mouse assessed as change in mean corpuscular hemoglobin level at 100 mg/kg, ip qd (reference value: 17.5 pg); type: organism-based; conditions: in vivo
[5] = Toxicity in ICR mouse assessed as change in mean corpuscular hemoglobin concentration at 100 mg/kg, ip qd (reference value: 343 g/L); type: organism-based; conditions: in vivo
[6] = Toxicity in ICR mouse assessed as change in red blood cell volume distribution width at 100 mg/kg, ip qd (reference value: 16.6 %); type: organism-based; conditions: in vivo
[7] = Toxicity in ICR mouse assessed as change in plateletcrit level at 100 mg/kg, ip qd (reference value: 0.415 %); type: organism-based; conditions: in vivo
Bel-7402 [8] = assay: Cytotoxicity against human Bel-7402 cells assessed as increase LDH release at 2.5 to 5 uM by LDH assay; type: functional, cell-based; conditions: dose 2.5-5 µM, time 24-48 hrs, TDE = time-dependent effect
Bel-7402 [9] = assay: Induction of apoptosis in human Bel-7402 cells assessed as early apoptotic cells at 0.625 uM incubated for 24 hrs by Annexin V and dead cell assay kit (reference value: 3.75 %); type: functional
Bel-7402 [10] = assay: Induction of apoptosis in human Bel-7402 cells assessed as late apoptotic cells at 0.625 uM incubated for 24 hrs by Annexin V and dead cell assay kit (reference value: 4.45 %); type: functional
Bel-7402 [11] = assay: Induction of apoptosis in human Bel-7402 cells assessed as viable cells at 1.25 uM incubated for 24 hrs by Annexin V and dead cell assay kit (reference value: 91.00%); type: functional; conditions: read-out: Activity
Bel-7402 [12] = assay: Induction of apoptosis in human Bel-7402 cells assessed as early apoptotic cells at 1.25 uM incubated for 24 hrs by Annexin V and dead cell assay kit (reference value: 3.75 %); type: functional
Bel-7402 [13] = assay: Induction of apoptosis in human Bel-7402 cells assessed as late apoptotic cells at 1.25 uM incubated for 24 hrs by Annexin V and dead cell assay kit (reference value: 4.45 %); type: functional
Bel-7402 [14] = assay: Induction of apoptosis in human Bel-7402 cells assessed as dead cells at 1.25 uM incubated for 24 hrs by Annexin V and dead cell assay kit (reference value: 0.80 %); type: functional
Bel-7402 [15] = assay: Induction of apoptosis in human Bel-7402 cells assessed as late apoptotic cells at 2.5 uM incubated for 24 hrs by Annexin V and dead cell assay kit (reference value: 4.45 %); type: functional
Bel-7402 [16] = assay: Induction of apoptosis in human Bel-7402 cells assessed as dead cells at 2.5 uM incubated for 24 hrs by Annexin V and dead cell assay kit (reference value: 0.80 %); type: functional
Bel-7402 [17] = assay: Induction of apoptosis in human Bel-7402 cells assessed as viable cells at 5 uM incubated for 24 hrs by Annexin V and dead cell assay kit (reference value: 91.00%); type: functional; conditions: read-out: Activity
Bel-7402 [18] = assay: Induction of apoptosis in human Bel-7402 cells assessed as early apoptotic cells at 5 uM incubated for 24 hrs by Annexin V and dead cell assay kit (reference value: 3.75 %); type: functional
Bel-7402 [19] = assay: Induction of apoptosis in human Bel-7402 cells assessed as increase in cleaved caspase-3 upto 2.5 uM incubated for 24 hrs by Western blot analysis; type: functional, cell-based
Bel-7402 [20] = assay: Induction of apoptosis in human Bel-7402 cells assessed as increase in cleaved caspase-9 upto 2.5 uM incubated for 24 hrs by Western blot analysis; type: functional, cell-based
Bel-7402 [21] = assay: Induction of caspase dependent apoptosis in human Bel-7402 cells assessed as reduction in cell proliferation inhibition upto 10 uM incubated for 24 hrs in presence of Z-vad-fmk by MTT assay; type: functional, cell-based
Bel-7402 [22] = assay: Effect on ERK signalling pathway in human Bel-7402 cells assessed as increase in phosphorylated-ERK level upto 2.5 uM incubated for 24 hrs by Western blot analysis; type: functional, cell-based
Bel-7402 [23] = assay: Antitumor activity against human Bel-7402 cells xenografted in BALB/c nude mouse assessed as tumor growth inhibition at 10 mg/kg, ip bid measured every 2 days for 14 days relative to control; type: functional; conditions: Bel-7402, 336 h, time 14 day, read-out: TGI
Bel-7402 [24] = assay: Antitumor activity against human Bel-7402 cells xenografted in BALB/c nude mouse assessed as tumor growth inhibition at 20 mg/kg, ip qd measured every 2 days for 14 days relative to control; type: functional; conditions: Bel-7402, 336 h, time 14 day, read-out: TGI
[25] = Toxicity in BALB/c nude mouse xenografted with human Bel-7402 cells assessed as change in body weight at 10 to 20 mg/kg, ip bid measured every 2 days for 14 days; type: organism-based; conditions: in vivo, 336 h, dose 10-20 mg/kg, time 14 day
[26] = Chronic toxicity in ICR mouse assessed as effect on lung morphology at 100 mg/kg, ip qd measured after 26 days by H and E staining method; type: organism-based; conditions: in vivo, 624 h, time 26 day
Bel-7402 [27] = assay: Induction of AKT degradation in human Bel-7402 cells at 2.5 uM incubated for 24 hrs in presence of Z-vad-fmk by Western blot analysis; type: cell-based
Bel-7402 [28] = assay: Induction of AKT degradation in human Bel-7402 cells at 2.5 uM incubated for 24 hrs in presence of chloroquine by Western blot analysis; type: cell-based
Bel-7402 [29] = assay: Upregulation of total protein ubiquitination level in human Bel-7402 cells by Western blot analysis; type: functional, cell-based; conditions: dose <= 10.0 µM, DDE = dose-dependent effect
[30] = Biodistribution in whole body of mouse bearing tumor measured after 1 hr by ICG dye based fluorescence imaging; type: ADME, organism-based; conditions: in vivo
[31] = Drug elimination in mouse bearing tumor measured after 24 hr by ICG dye based fluorescence imaging; type: ADME; conditions: in vivo
[32] = Drug uptake in tumor of mouse bearing tumor measured after 24 hr by ICG dye based fluorescence imaging; type: ADME, tissue-based, Neoplasm; conditions: in vivo
[33] = Biodistribution in liver of mouse bearing tumor measured after 24 hr by ICG dye based fluorescence imaging; type: ADME, organism-based; conditions: in vivo
[34] = Acute toxicity in ICR mouse assessed as behavioural change at 100 to 500 mg/kg, ip; type: organism-based; conditions: in vivo, dose 100-500 mg/kg
Bel-7402 [35] = assay: Induction of apoptosis in human Bel-7402 cells assessed as early apoptotic cells at 2.5 uM incubated for 24 hrs in presence of U0126 by Annexin V and Dead cell kit assay (reference value: 3.7 %); type: functional
Bel-7402 [36] = assay: Induction of apoptosis in human Bel-7402 cells assessed as late apoptotic cells at 2.5 uM incubated for 24 hrs in presence of U0126 by Annexin V and Dead cell kit assay (reference value: 3.85 %); type: functional

CC[C@H](C)/C=C(C)/C=C/C1=CC2=C(Cl)C(=O)[C@](C)(O)C(=O)C2=CN1Cc1ccc(OC(F)(F)F)cc1
IC50 at 72 h [1]: 2.82 µM | pIC50 (ECa-109 cell line): 5.94 | Activity [2]: 1.4 10^9/L | Activity [3]: 55 fL | Activity [4]: 16.8 pg | Activity [5]: 306 g/L | Activity [6]: 13.5% | Activity [7]: 0.407% | Activity (Bel-7402 [8]): Tde | Activity (Bel-7402 [9]): 4.7% | Activity (Bel-7402 [10]): 3.1% | viability at 1.25 µM (Bel-7402 [11]): 88.4% | Activity (Bel-7402 [12]): 5.1% | Activity (Bel-7402 [13]): 5.75% | Activity (Bel-7402 [14]): 0.75% | Activity (Bel-7402 [15]): 35.25% | Activity (Bel-7402 [16]): 3.35% | viability at 5 µM (Bel-7402 [17]): 8.2% | Activity (Bel-7402 [18]): 8.1% | Activity (Bel-7402 [19]): Active | Activity (Bel-7402 [20]): Active | Activity (Bel-7402 [21]): Active | Activity (Bel-7402 [22]): Active | inhibition in vivo at 10 mg/kg (Bel-7402 [23]): 34.6% | inhibition in vivo at 20 mg/kg (Bel-7402 [24]): 18.3% | Activity [25]: Non-Toxic | Activity [26]: Non-Toxic | Activity (Bel-7402 [27]): Active | Activity (Bel-7402 [28]): Active | Activity (Bel-7402 [29]): Dde | Activity [30]: Active | Drug excretion [31]: Metabolite_Detected | Drug uptake [32]: Active | Activity [33]: Active | Activity [34]: Non-Toxic | Activity (Bel-7402 [35]): 26.1% | Activity (Bel-7402 [36]): 36.9%

Source: ChEMBL document CHEMBL5154737, “Semisynthesis and biological evaluation of (+)-sclerotiorin derivatives as antitumor agents for the treatment of hepatocellular carcinoma” (Eur J Med Chem, 2022)
